Several values for one entry are separate records, joined by “and”; a condition that tells them apart may be missing. Equal entries are not always repeated. Where no end group is shown, it is not given here.
How the values were obtained:
[1] = system: Lactobacillus crispatus DSM 20356; assay: Antimicrobial assay (surviving colonies, CFU count); format: cell-based; settings: for antimicrobial/protective activity in reducing environment: peptides pre-incubated with 2 mM DTT 30 min 37 °C, 6 h with bacteria, n = 6; for Bacterial survival (surviving colonies): Fig 5E, L. crispatus, individual replicates; for Bacterial survival (surviving colonies) / positive effect on survival in acidic conditions: pH 5.8; for positive effect on survival in potassium phosphate buffer: KPB pH 7.4, 10 mM; for positive effect on survival in potassium phosphate buffer / positive effect on survival in acidic conditions / effect on bacterial growth/survival (percentage of surviving colonies): 6 h; for positive effect on survival in potassium phosphate buffer / positive effect on survival in acidic conditions: n = 4; for effect on bacterial growth/survival (percentage of surviving colonies): peptide 1–10 µg/ml, 5 × 10^4 CFU/ml, 10 mM sodium phosphate buffer, 37 °C, plated on Columbia Blood agar, n = 3; for incubation time at which a significant increased percentage of surviving colonies was detected: starvation assay (no nutrients), 45 min to 9 h, n = 8
Protocol: (§1) Bacterial strains Lactobacillus crispatus DSM 20356, Lactobacillus iners CIP 105923 and Garnerella vaginalis CCUG 43336 were kindly provided by the Department of Clinical Microbiology at University Hospital Center of Liege. Lactobacillus jensenii LMG 6414 was obtained from BCCM/LMG Bacteria Collection (University of Gent, Belgium). Log-phase bacteria were grown on Columbia agar with 5% sheep blood (Becton Dickinson, Franklin Lakes, NJ, USA) at 37 °C in a humidified CO2 atmosphere (Lactobacilli) or in anaerobic jars (G. vaginalis). To analyze the antimicrobial effect of innate peptides expressed by vaginal/cervical mucosa, 5 × 10^4 colony-forming unit (CFU)/ml were mixed with different peptides (concentration range: 1–10 µg/ml) in 10 mM sodium phosphate buffer (SPB) (final volume 100 µl) and incubated for 45 min to 9 h at 37 °C. Where indicated, the peptides were incubated with 2 mM dithiothreitol (DTT) (Invitrogen, Carlsbad, CA, USA) for 30 min at 37 °C before adding the bacteria. In indicated experiments, incubation was carried out in potassium phosphate buffer (KPB) (pH: 7.4, 10 mM). The following peptides were tested: HβD1 (PeptaNova, Sandhausen, Germany), HβD2 (PeptaNova), HβD3 (PeptaNova), HβD4 (PeptaNova), HD-5 (PeptaNova), HD-6 (PeptaNova), elafin (PeptaNova), S100A7 (Abnova, Taipei City, Taiwan) and SLPI (R&D Systems, Minneapolis, MI, USA). Bacterial suspensions were then plated on Columbia Blood agar plates for 24–48 h to determine CFU. High-resolution images for each condition were taken. Colony detection and counts were finally performed using ImageJ software (NIH, Bethesda, MD, USA) and verified by manual counting.

[2] = system: Lactobacillus iners CIP 105923; assay: as above; format: cell-based; settings: for Bacterial survival (surviving colonies): Fig 5E, L. iners, individual replicates; for Bacterial survival (surviving colonies) / positive effect on survival in acidic conditions: pH 5.8; for positive effect on survival in potassium phosphate buffer: KPB pH 7.4, 10 mM; for positive effect on survival in potassium phosphate buffer / positive effect on survival in acidic conditions / effect on bacterial growth/survival (percentage of surviving colonies): 6 h; for positive effect on survival in potassium phosphate buffer / positive effect on survival in acidic conditions: n = 4; for effect on bacterial growth/survival (percentage of surviving colonies): peptide 1–10 µg/ml, 5 × 10^4 CFU/ml, 10 mM sodium phosphate buffer, 37 °C, plated on Columbia Blood agar, n = 3; for antimicrobial/protective activity in reducing environment: peptides pre-incubated with 2 mM DTT 30 min 37 °C, 6 h with bacteria, n = 5; for incubation time at which a significant increased percentage of surviving colonies was detected: starvation assay (no nutrients), n = 6
Protocol: as §1

[3] = system: Lactobacillus jensenii LMG 6414; assay: as above; format: cell-based; settings: for Bacterial survival (surviving colonies): Fig 5E, L. jensenii, individual replicates; for Bacterial survival (surviving colonies) / positive effect on survival in acidic conditions: pH 5.8; for positive effect on survival in potassium phosphate buffer: KPB pH 7.4, 10 mM; for positive effect on survival in potassium phosphate buffer / positive effect on survival in acidic conditions / effect on bacterial growth/survival (percentage of surviving colonies): 6 h; for positive effect on survival in potassium phosphate buffer / positive effect on survival in acidic conditions / antimicrobial/protective activity in reducing environment: n = 4; for effect on bacterial growth/survival (percentage of surviving colonies): peptide 1–10 µg/ml, 5 × 10^4 CFU/ml, 10 mM sodium phosphate buffer, 37 °C, plated on Columbia Blood agar, n = 3; for antimicrobial/protective activity in reducing environment: peptides pre-incubated with 2 mM DTT 30 min 37 °C, 6 h with bacteria; for incubation time at which a significant increased percentage of surviving colonies was detected: starvation assay (no nutrients), 45 min to 9 h, n = 8
Protocol: as §1

L. jensenii [4] = assay: Internalization of fluorescent-labeled peptides in bacteria (flow cytometry); format: cell-based, Lactobacillus jensenii; settings: Atto 488-labeled peptide 5 µg/ml, 5 × 10^4 CFU/ml, 10 mM SPB, 1 h30, 37 °C, trypan blue, n = 3
Protocol: (§2) To determine the incorporation of selected peptides (or their hydrolyzed products) within the cytoplasm of several bacterial species, free amine groups (lysine residues and N-terminus) were first conjugated with Atto 488 dye according to manufacturer’s recommendations (Atto 488 protein labeling kit, Sigma Aldrich). A total 5 × 10^4 colony-forming unit (CFU)/ml were then mixed with fluorescent labeled peptides (5 µg/ml) in 10 mM sodium phosphate buffer (final volume 100 µl) and incubated for 1 h30 at 37 °C before being analyzed by flow cytometry. Where indicated, trypan blue was added before the analysis in order to exclusively consider cytoplasmic fluorescence.

L. jensenii [5] = assay: ATP measurement in bacteria (BacTiter-Glo); format: cell-based, Lactobacillus jensenii; settings: 6 × 10^7 CFU/ml, peptide 5 µg, 10 mM SPB, 6 h, 37 °C; luminescence; n = 5; statistical significance not reached in all conditions
Protocol: (§3) ATP level in bacteria was determined using the BacTiter-Glo Microbial Cell Viability Assay (Promega) according to manufacturer’s recommendations. For each bacterial species, 6 ×10^7 CFU/ml were mixed with elafin or S100A7 (5 µg) in 10 mM SPB and incubated 6 h at 37 °C. One hundred µl of bacterial-peptide solution were then mixed with an equal volume of BacTiter-Glo reagent and incubated for 5 min at room temperature. Luminescence was measured using a Centro LB960 microplate luminometer (Berthold Technologies, Bad Wildbad, Germany).

L. crispatus [6] = assay: ATP measurement in bacteria (BacTiter-Glo); format: cell-based, Lactobacillus crispatus; settings: 6 × 10^7 CFU/ml, peptide 5 µg, 10 mM SPB, 6 h, 37 °C; luminescence; n = 5; statistical significance not reached in all conditions
Protocol: as §3

L. crispatus [7] = assay: Internalization of fluorescent-labeled peptides in bacteria (flow cytometry); format: cell-based, Lactobacillus crispatus; settings: Atto 488-labeled peptide 5 µg/ml, 5 × 10^4 CFU/ml, 10 mM SPB, 1 h30, 37 °C, trypan blue, n = 3
Protocol: as §2

L. iners [8] = assay: ATP measurement in bacteria (BacTiter-Glo); format: cell-based, Lactobacillus iners; settings: 6 × 10^7 CFU/ml, peptide 5 µg, 10 mM SPB, 6 h, 37 °C; luminescence; n = 5; statistical significance not reached in all conditions
Protocol: as §3

L. iners [9] = assay: Internalization of fluorescent-labeled peptides in bacteria (flow cytometry); format: cell-based, Lactobacillus iners; settings: Atto 488-labeled peptide 5 µg/ml, 5 × 10^4 CFU/ml, 10 mM SPB, 1 h30, 37 °C, trypan blue, n = 3
Protocol: as §2

Molecule | antimicrobial/protective activity in reducing environment [1] | Bacterial survival (surviving colonies) [2] | positive effect on survival in potassium phosphate buffer [2] | positive effect on survival in acidic conditions [2] | effect on bacterial growth/survival (percentage of surviving colonies) [2] | antimicrobial/protective activity in reducing environment [2] | incubation time at which a significant increased percentage of surviving colonies was detected [2] | Bacterial survival (surviving colonies) [3] | positive effect on survival in potassium phosphate buffer [3] | positive effect on survival in acidic conditions [3] | effect on bacterial growth/survival (percentage of surviving colonies) [3] | antimicrobial/protective activity in reducing environment [3] | incubation time at which a significant increased percentage of surviving colonies was detected [3] | Bacterial survival (surviving colonies) [1] | positive effect on survival in potassium phosphate buffer [1] | positive effect on survival in acidic conditions [1] | effect on bacterial growth/survival (percentage of surviving colonies) [1] | incubation time at which a significant increased percentage of surviving colonies was detected [1] | internalization of fluorescent-labeled peptide (or hydrolyzed products) within the cytoplasm of bacteria (L. jensenii [4]) | ATP production (L. jensenii [5]) | further results
HβD3: epithelial member of the defensin family, host defense peptide (PeptaNova) (GIINTLQKYYCRVRGGRCAVLSCLPKEEQIGKCSTRGRKCCRRKK; not fully specified; ends and bridges not checked; UniProt P81534 23-67, looked up) | slight increase in the antibacterial activity |  |  |  |  |  |  |  |  |  |  |  |  |  |  |  |  |  |  |  | 
elafin: "defensin-like" innate peptide constitutively secreted by cervical/vaginal mucosa (PeptaNova) (AQEPVKGPVSTKPGSCPIILIRCAMLNPPNRCLKDTDCPGIKKCCEGSCGMACFVPQ; not fully specified; ends and bridges not checked; UniProt P19957 61-117, looked up) | significant protective effect | 148.35 and 185.56 and 157.03 and 142.84 | did not modify the positive effect | did not modify the positive effect | do not display any antimicrobial activities | significant protective effect | only detected after 3 or 6 h | 223.81 and 226.19 and 261.90 and 150.02 | did not modify the positive effect | did not modify the positive effect | do not display any antimicrobial activities | significant protective effect | only detected after 3 or 6 h | 124.66 and 146.1 and 157.25 and 154.15 | did not modify the positive effect | did not modify the positive effect | do not display any antimicrobial activities | only detected after 3 or 6 h | internalization | increase of ATP production | ATP production (L. crispatus [6]): increase of ATP production; internalization of fluorescent-labeled peptide (or hydrolyzed products) within the cytoplasm of bacteria (L. crispatus [7]): internalization; ATP production (L. iners [8]): increase of ATP production; internalization of fluorescent-labeled peptide (or hydrolyzed products) within the cytoplasm of bacteria (L. iners [9]): internalization
S100A7: "defensin-like" innate peptide constitutively secreted by cervical/vaginal mucosa (Abnova) (protein, UniProt P31151 2-101, looked up) Protein S100-A7: SNTQAERSIIGMIDMFHKYTRRDDKIEKPSLLTMMKENFPNFLSACDKKGTNYLADVFEKKDKNEDKKIDFSEFLSLLGDIATDYHKQSHGAAPCSGGSQ | significant protective effect | 138.53 and 246.67 and 123.50 and 159.47 | did not modify the positive effect | did not modify the positive effect | do not display any antimicrobial activities | significant protective effect | only detected after 3 or 6 h | 419.05 and 164.29 and 304.76 and 269.05 | did not modify the positive effect | did not modify the positive effect | do not display any antimicrobial activities | significant protective effect | only detected after 3 or 6 h | 127.74 and 112.92 and 139.54 and 168.69 | did not modify the positive effect | did not modify the positive effect | do not display any antimicrobial activities | only detected after 3 or 6 h | internalization | increase of ATP production | ATP production (L. crispatus [6]): increase of ATP production; internalization of fluorescent-labeled peptide (or hydrolyzed products) within the cytoplasm of bacteria (L. crispatus [7]): internalization; ATP production (L. iners [8]): increase of ATP production; internalization of fluorescent-labeled peptide (or hydrolyzed products) within the cytoplasm of bacteria (L. iners [9]): internalization

Reference: publication PMC8885657, “HPV infection alters vaginal microbiome through down-regulating host mucosal innate peptides used by Lactobacilli as amino acid sources” (Nature Communications, 2022)
